The text below walks through data of patent US9040570B2, “Compounds for anti-fungal treatment” (priority 2010, dated 2015).

Assay [1] has as its system C. neoformans. Kind of assay: AK assay with C. neoformans (lysis). It is filed as cell-based. The source says: The AK assay was designed to take advantage of the fact that dead yeast cells lose membrane integrity and leak intracellular enzymes and proteins into culture medium. Upon cell lysis, AK is released into the medium and is detected by a coupled enzyme reaction in which AK converts 2 molecules of ADP into ATP. The ATP and luciferin are used by luciferase and a luminescent signal is generated as a reporter of yeast cell lysis (FIG. 1). […] Additionally, traditional growth-based screening cannot differentiate between fungistatic and fungicidal molecules.
In order to determine whether the AK assay was applicable to C. neoformans, a set of molecules containing drugs was tested. […] Agents Chemother.

The subject of assay [2] is C. neoformans. As to conditions: cited from earlier work.
Assay [3] has as its system C. neoformans. As to conditions: reported by Vu and Gelli; cited from earlier work.
For assay [4] the following is noted: other laboratories (Vu and Gelli); cited from earlier work.
For assay [5], the system named is S. cerevisiae. Kind of assay: adenylate kinase (AK) assay with S. cerevisiae (yeast cell lysis). The format is cell-based. As to conditions: for AK assay result (fungilytic activity): screen of Prestwick Library. The procedure: A high throughput assay that detects molecules that cause yeast cell lysis was recently developed as a new method for anti-fungal drug discovery (Krysan and DiDone, J. Biomol. Screen 13:657-64 (2008)). The adenylate kinase (AK) assay has three important features that make it a very useful tool for the identification of fungicidal anti-cryptococcal molecules: it is specific for fungicidal molecules; it is cell-based; and it is carried out with C. neoformans directly.
The AK assay was designed to take advantage of the fact that dead yeast cells lose membrane integrity and leak intracellular enzymes and proteins into culture medium. Upon cell lysis, AK is released into the medium and is detected by a coupled enzyme reaction in which AK converts 2 molecules of ADP into ATP. The ATP and luciferin are used by luciferase and a luminescent signal is generated as a reporter of yeast cell lysis (FIG. 1). The AK assay is specific for molecules that are fungicidal and is more sensitive than traditional growth-based antifungal screening assays. Additionally, traditional growth-based screening cannot differentiate between fungistatic and fungicidal molecules.
As part of the validation studies, a library of 1200 previously marketed drugs (Prestwick Library) was screened using the AK assay with S. cerevisiae (Krysan and DiDone, J. Biomol. Screen 13:657-64 (2008)). The library contained 15 clinically used antifungal drugs, of which 9 scored positive as fungilytic. […] In addition to molecules with known antifungal activity, fungilytic activity was identified in 10 drugs for which no antifungal activity had been reported previously (FIG. 3B). Subsequently, the antifungal activity of two drugs, astemizole and suloctidil was confirmed by other laboratories (Vu and Gelli, Med. Mycol. 1-9 (2009)). Thus, the AK assay is a sensitive reporter of antifungal activity in the HTS setting.

Another assay has as its system S. cerevisiae cells. Kind of assay: growth assay / MIC with S. cerevisiae cells. The note with it: Saccharomyces cerevisiae; this strain of S. cerevisiae cells; read-out: minimum inhibitory concentration (MIC). The format is cell-based.
Assay [6] concerns C. neoformans. Kind of assay: MIC against C. neoformans. The note with it: for MIC: Cryptococcus neoformans. It is filed as cell-based. Here is the method:
(§1) To complete the characterization of the antifungal activity of triphenylethylene-based estrogen receptor antagonists, toremifene was also evaluated. […] The interaction of toremifene with FLC was also evaluated using checkerboard methods.

For assay [7], the system named is C. albicans. The assay is described as follows: follow-up lysis assay with C. albicans. The format is cell-based.
A further assay has as its system pathogenic yeast. The assay is described as follows: in vitro susceptibility testing of a range of pathogenic yeast, CLSI standardized methods. The format is cell-based.
In assay [8] the test system is C. albicans. Kind of assay: MIC against C. albicans. It is filed as cell-based. The note with it: Candida albicans. Here is the method: as §1
Assay [9] relates to C. albicans. The assay is described as follows: mouse model of disseminated candidiasis, kidney fungal burden. The format is in vivo. As to conditions: mice, 7 day pre-treatment at 200 mg/kg, C. albicans tail vein injection, 48 hour kidney burden. Here is the method: FIGS. 5A and 5B show in vitro and in vivo antifungal activity of TAM/CLM.
Mice were treated with either sham or tamoxifen for seven days prior to challenge with C. albicans by tail vein injection. […] The mice were treated for an additional two days, sacrificed, and kidney fungal burdens determined. Kidney fungal burden is a well-characterized quantitative endpoint that correlates with efficacy. […] These studies further support the potential utility of this class of molecules as antifungal agents.

A further assay has as its system Myo2-GFP. Kind of assay: Myo2-GFP localization to bud neck/septum during mitosis. It is filed as cell-based, yeast.
Assay [10] deals with S. cerevisiae. Kind of assay: chemical genetic analysis: growth of S. cerevisiae PKC1/CMD1 strains on tamoxifen plates. The format is cell-based. The source says:
Previously, the molecular target of tamoxifen and related compounds in yeast was unknown. […] Both of these proteins are essential in yeast.

Another assay deals with T1, calmodulin with Myo2p.
T1 construct: host or cells: Myo2-GFP came from crude lysates of yeast cells expressing it
Kind of assay: pull down of Myo2-GFP by sepharose bead immobilized calmodulin from yeast cell lysates. The format is binding. The note with it: in vitro, crude yeast cell lysates.

For assay [11], the system named is C. neoformans. Kind of assay: non-antibody mediated phagocytosis of C. neoformans by J774 cells. It is filed as cell-based, murine. As to conditions: absence of opsonization; subinhibitory toremifene 4 μg/ml overnight.
Protocol: C. neoformans JEC21 cells were treated overnight with DMSO or subinhibitory toremifene (4 μg/ml), washed, and exposed to J774 macrophage cells for 2 hours without antibody.

≈ marks a conversion by molar mass, not a printed value. Entries after “also recorded” stand apart in the source; their conditions may differ.

On to `CCCCc1oc2ccccc2c1C(=O)c1cc(I)c(OCCN(CC)CC)c(I)c1` [amiodarone], for which the “AK release / lysis” value in the assay with C. neoformans [1] is listed as “AK release was detected”.
`C[C@@H]1[C@H](O)[C@@H](C)/C=C/C=C/C=C/C=C/C=C/C=C/C=C/[C@H](O[C@@H]2O[C@H](C)[C@@H](O)[C@H](N)[C@@H]2O)C[C@@H]2O[C@](O)(C[C@@H](O)C[C@@H](O)[C@H](O)CC[C@@H](O)C[C@@H](O)CC(=O)O[C@H]1C)C[C@H](O)[C@H]2C(=O)O` [amphotericin B]: the “efficiency by which macrophages phagocytose C. neoformans” value in the assay on C. neoformans [2] (background statement) was “increase”.
In the case of `COc1ccc(CCN2CCC(Nc3nc4ccccc4n3Cc3ccc(F)cc3)CC2)cc1` [astemizole], in the assay with C. neoformans [3], the “fungicidal activity toward C. neoformans” value is given as “fungicidal” and the “interaction with FLC” value was “synergistic”. The “AK release / lysis” value in the assay on C. neoformans [1] is listed as “caused lysis”. Moreover, the antifungal activity entry in assay [4] is “confirmed”.
With `CC[C@H](C)C[C@H](C)CCCCCCCCC(=O)N[C@H]1C[C@@H](O)[C@@H](NCCN)NC(=O)[C@@H]2[C@@H](O)CCN2C(=O)[C@H]([C@H](O)CCN)NC(=O)[C@H]([C@H](O)[C@@H](O)c2ccc(O)cc2)NC(=O)[C@@H]2C[C@@H](O)CN2C(=O)[C@H]([C@@H](C)O)NC1=O` [caspofungin], the “AK release / lysis” value in the assay on C. neoformans [1] is reported as “not”. Moreover, the “concentration inducing AK release relative to concentration causing detectable change in growth rate” value in the assay on S. cerevisiae [5] (fold below) is around 10 fold. The MIC in the assay with S. cerevisiae cells turned out to be 0.062 µg/mL (≈ 0.0567 µM).
As to `CCN(CC)CCOc1ccc(C(=C(Cl)c2ccccc2)c2ccccc2)cc1` [clomiphene], the MIC with C. neoformans [6] was found to be 64 µg/mL. The lysis entry with C. albicans [7] was “cause lysis”. The “AK release / lysis” value in the assay with C. neoformans [1] was “cause lysis”. In addition, the “activity relative to tamoxifen” value with pathogenic yeast is on record as “consistently less active”. The “AK assay result (fungilytic activity)” value with S. cerevisiae [5] is given as “highly fungilytic”.
With `OC(Cn1cncn1)(Cn1cncn1)c1ccc(F)cc1F` [fluconazole], in the assay on C. neoformans [6], the MIC was 4 µg/mL. Moreover, in the assay with S. cerevisiae [5], the “AK assay result (fungilytic activity)” value is on record as “negative; also recorded: not positive”. The increase of phagocytosis in the assay on C. neoformans [2] (Nosanchuk et al.) is reported as 2 fold.
In the case of `COC1=CC(=O)C[C@@H](C)[C@]12Oc1c(Cl)c(OC)cc(OC)c1C2=O` [griseofulvin], in the assay with S. cerevisiae [5], the “AK assay result (fungilytic activity)” value is “negative; also recorded: not positive”.
As for `CCCCCCCCNC(C)C(O)c1ccc(SC(C)C)cc1` (centres unmarked) [suloctidil], the antifungal activity entry in assay [4] is “confirmed”.
For `CC/C(=C(\c1ccccc1)c1ccc(OCCN(C)C)cc1)c1ccccc1` [tamoxifen], the MIC was 32 µg/mL in the assay with C. albicans [8] and 64 µg/mL in the assay on C. neoformans [6]. In addition, the “lowering of kidney fungal burden” value in the assay on C. albicans [9] worked out at 1.5 log10. In addition, the “Myo2-GFP localizing to the bud neck/septum region” value in the assay on Myo2-GFP was “prevented”. For the same compound, the lysis result in the assay with C. albicans [7] is reported as “cause lysis”. Besides, in the assay on S. cerevisiae [10] (S. cerevisiae cmd1 mutants), the “sensitivity of strains with hypofunctional alleles of CMD1” value is recorded as “hypersensitive”. Further, the “effect of CMD1 overexpression on growth on tamoxifen plates” value in the assay with S. cerevisiae [10] (wild type S. cerevisiae overexpressing CMD1) is “suppressed toxicity”. In addition, in the assay with S. cerevisiae [10] (wild type S. cerevisiae overexpressing PKC1), the “effect of PKC1 overexpression on growth on tamoxifen plates” value is recorded as “exacerbated its effects”. For the same compound, the “AK assay result (fungilytic activity)” value in the assay with S. cerevisiae [5] is recorded as “highly fungilytic”. Moreover, the “ability of immobilized calmodulin to pull down Myo2-GFP” value in the assay with calmodulin with Myo2p is “interferes”.
In the case of `CN(C)CCOc1ccc(/C(=C(/CCCl)c2ccccc2)c2ccccc2)cc1` [toremifene], the MIC in the assay on C. albicans [8] is 32 µg/mL. Moreover, in the assay on C. neoformans [6], the “MIC lower than either tamoxifen or clomiphene” value stood at 16 fold, the “increase of MIC at 30° C. relative to 37° C.” value was 2 fold and the MIC was found to be 4 µg/mL. The “increase in AK release” value in the assay on C. neoformans [1] (at 4 μg/mL) was found to be 12 fold. Moreover, the “increase of phagocytosis of C. neoformans by J774 cells” value in the assay with C. neoformans [11] is 2 fold.
